Assay results published in the supplement of paper PMC6045584.
± gives the standard deviation of the averaged measurements.

Assays:
[1] = compound: C[C@@H](Oc1cc(-c2cnn(C3CCNCC3)c2)cnc1N)c1c(Cl)ccc(F)c1Cl; test: surviving fraction relative to DMSO-only wells; higher = less growth inhibition; settings: exposure time: 5 days
Outline: (§1)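 In 384-well plates, 250–500 log-phase tumour cells per well were given 24 hours before five days of continuous exposure to inhibitors at 0.5, 1, 5, 10, 50, 100, 500 and 1000 nM. Surviving fraction is luminescence from CellTiter-Glo, normalised to the median of wells containing DMSO alone. Reading took place after 10 minutes at room temperature.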

DASATINIB = compound: Cc1nc(Nc2ncc(C(=O)Nc3c(C)cccc3Cl)s2)cc(N2CCN(CCO)CC2)n1 [DASATINIB]; test: as above; settings: exposure time: 5 days
Outline: as §1

Test System | surviving fraction ([1]; 0.5 nM) | surviving fraction ([1]; 1 nM) | surviving fraction ([1]; 5 nM) | surviving fraction ([1]; 10 nM) | surviving fraction ([1]; 50 nM) | surviving fraction ([1]; 100 nM) | surviving fraction ([1]; 500 nM) | surviving fraction ([1]; 1000 nM) | surviving fraction (DASATINIB; 0.5 nM) | surviving fraction (DASATINIB; 1 nM) | surviving fraction (DASATINIB; 5 nM) | surviving fraction (DASATINIB; 10 nM) | surviving fraction (DASATINIB; 50 nM) | surviving fraction (DASATINIB; 100 nM) | surviving fraction (DASATINIB; 500 nM) | surviving fraction (DASATINIB; 1000 nM)
HCC1954 BREAST | 0.364 ± 0.042 | 0.353 ± 0.084 | 0.426 ± 0.06 | 0.401 ± 0.021 | 0.472 ± 0.019 | 0.473 ± 0.036 | 0.443 ± 0.11 | 0.4677 ± 0.0032 | 0.362 ± 0.011 | 0.325 ± 0.035 | 0.282 ± 0.0039 | 0.351 ± 0.006 | 0.309 ± 0.022 | 0.173 ± 0.021 | 0.148 ± 0.0028 | 0.104 ± 0.019
HCT15 LARGE INTESTINE | 0.88 ± 0.058 | 0.88 ± 0.054 | 0.895 ± 0.03 |  | 0.959 ± 0.024 |  | 0.889 ± 0.042 | 0.165 ± 0.0046 | 0.827 ± 0.034 | 0.814 ± 0.04 | 0.789 ± 0.06 | 0.73 ± 0.094 | 0.702 ± 0.044 | 0.56 ± 0.034 | 0.363 ± 0.083 | 0.326 ± 0.046
HELA CERVIX | 0.969 ± 0.02 |  | 0.948 ± 0.018 | 0.895 ± 0.072 | 1.02 ± 0.027 | 1.06 ± 0.055 | 0.811 ± 0.05 | 0.258 ± 0.015 | 0.937 ± 0.085 | 0.934 ± 0.057 | 0.948 ± 0.037 | 0.909 ± 0.029 | 1.02 ± 0.029 | 1.04 ± 0.011 | 1.04 ± 0.061 | 1.06 ± 0.037
HOS BONE | 0.934 ± 0.018 | 0.938 ± 0.019 | 0.966 ± 0.03 |  | 1.008 ± 0.0042 | 0.997 ± 0.038 | 0.571 ± 0.029 | 0.499 ± 0.023 | 0.906 ± 0.018 | 0.908 ± 0.022 | 0.821 ± 0.015 | 0.763 ± 0.048 | 0.693 ± 0.0078 | 0.604 ± 0.015 | 0.382 ± 0.035 | 0.358 ± 0.014
HOSMNG BONE | 0.985 ± 0.018 | 1 ± 0.02 | 0.949 ± 0.016 | 0.949 ± 0.039 | 0.637 ± 0.066 | 0.518 ± 0.016 | 0.262 ± 0.013 | 0.17 ± 0.0051 | 0.979 ± 0.032 | 0.971 ± 0.05 | 0.868 ± 0.021 | 0.741 ± 0.027 | 0.603 ± 0.021 | 0.457 ± 0.016 | 0.36 ± 0.019 | 0.372 ± 0.0076
HSSYII SYNOVIAL | 0.85 ± 0.056 | 0.882 ± 0.039 | 0.81 ± 0.03 | 0.861 ± 0.036 | 0.848 ± 0.021 | 0.794 ± 0.035 | 0.261 ± 0.0051 | 0.122 ± 0.01 | 0.781 ± 0.031 | 0.791 ± 0.034 | 0.765 ± 0.029 | 0.743 ± 0.022 | 0.634 ± 0.0095 | 0.531 ± 0.047 | 0.489 ± 0.056 | 0.501 ± 0.037
HT1080 SOFT TISSUE | 1 ± 0.018 |  | 1.02 ± 0.011 | 0.991 ± 0.059 |  |  | 0.953 ± 0.036 | 0.638 ± 0.047 | 0.975 ± 0.032 | 0.947 ± 0.043 | 0.918 ± 0.02 | 0.841 ± 0.046 | 0.61 ± 0.017 | 0.541 ± 0.017 | 0.428 ± 0.023 | 0.427 ± 0.01
HU09 BONE |  | 0.889 ± 0.033 |  | 0.95 ± 0.07 |  | 0.841 ± 0.014 | 0.388 ± 0.053 | 0.197 ± 0.018 | 0.863 ± 0.056 | 0.845 ± 0.025 | 0.805 ± 0.086 | 0.75 ± 0.056 | 0.392 ± 0.051 | 0.214 ± 0.019 | 0.129 ± 0.007 | 0.12 ± 0.018
HUO3N1 BONE |  |  | 0.971 ± 0.034 |  | 0.974 ± 0.02 | 0.954 ± 0.029 | 0.842 ± 0.019 | 0.695 ± 0.031 | 0.8227 ± 0.0049 | 0.747 ± 0.029 | 0.568 ± 0.083 | 0.457 ± 0.032 | 0.331 ± 0.0068 | 0.2553 ± 0.0021 | 0.232 ± 0.013 | 0.215 ± 0.0027
JIMT1 BREAST | 0.869 ± 0.035 | 0.834 ± 0.024 | 0.893 ± 0.04 | 0.862 ± 0.033 | 0.971 ± 0.045 | 0.959 ± 0.038 | 0.634 ± 0.075 | 0.517 ± 0.042 | 0.859 ± 0.034 | 0.844 ± 0.033 | 0.802 ± 0.034 | 0.68 ± 0.024 | 0.394 ± 0.041 | 0.182 ± 0.018 | 0.0683 ± 0.012 | 0.0518 ± 0.0019
JURKAT HAEMATOPOIETIC AND LYMPHOID TISSUE | 0.993 ± 0.024 | 0.993 ± 0.029 |  | 0.98 ± 0.013 | 0.984 ± 0.021 | 0.943 ± 0.019 | 0.235 ± 0.013 | 0.195 ± 0.013 | 1.033 ± 0.0046 | 0.984 ± 0.034 | 0.927 ± 0.011 | 0.892 ± 0.011 | 0.886 ± 0.043 | 0.785 ± 0.024 | 0.614 ± 0.028 | 0.432 ± 0.016
KPD BONE | 0.886 ± 0.043 | 0.87 ± 0.013 | 0.974 ± 0.039 |  | 0.987 ± 0.083 |  | 0.518 ± 0.011 | 0.156 ± 0.012 | 0.909 ± 0.063 | 0.851 ± 0.053 | 0.781 ± 0.044 | 0.73 ± 0.0072 | 0.579 ± 0.039 | 0.481 ± 0.03 | 0.39 ± 0.016 | 0.336 ± 0.025
LM7 BONE | 0.745 ± 0.03 | 0.765 ± 0.027 | 0.779 ± 0.026 | 0.782 ± 0.075 |  | 0.859 ± 0.081 | 0.366 ± 0.031 | 0.168 ± 0.0087 | 0.732 ± 0.032 | 0.694 ± 0.031 | 0.616 ± 0.044 | 0.576 ± 0.028 | 0.443 ± 0.036 | 0.338 ± 0.014 | 0.206 ± 0.031 | 0.211 ± 0.008
LNCAP PROSTATE | 1.07 ± 0.056 | 1.16 ± 0.13 | 1.15 ± 0.034 | 1.13 ± 0.12 | 1 ± 0.045 | 0.801 ± 0.17 | 0.528 ± 0.075 | 0.464 ± 0.031 | 1.14 ± 0.05 | 1.1 ± 0.082 | 1.03 ± 0.075 | 0.941 ± 0.12 | 0.678 ± 0.032 | 0.504 ± 0.053 | 0.572 ± 0.012 | 0.589 ± 0.076
MCF7 BREAST | 0.826 ± 0.063 | 0.818 ± 0.027 | 0.827 ± 0.046 | 0.802 ± 0.03 | 0.89 ± 0.021 | 0.834 ± 0.034 | 0.755 ± 0.011 | 0.511 ± 0.017 | 0.803 ± 0.048 | 0.798 ± 0.043 | 0.816 ± 0.035 | 0.795 ± 0.019 | 0.787 ± 0.051 | 0.741 ± 0.048 | 0.741 ± 0.028 | 0.739 ± 0.037
MDAMB134 BREAST | 0.712 ± 0.097 | 0.718 ± 0.13 | 0.624 ± 0.11 | 0.667 ± 0.0014 | 0.854 ± 0.029 | 0.767 ± 0.038 | 0.758 ± 0.097 | 0.709 ± 0.1 | 0.71 ± 0.023 | 0.687 ± 0.0057 | 0.531 ± 0.013 | 0.534 ± 0.096 | 0.704 ± 0.018 | 0.6445 ± 0.0035 | 0.635 ± 0.019 | 0.606 ± 0.0064
MDAMB157 BREAST |  | 0.818 ± 0.016 | 0.967 ± 0.042 | 0.95 ± 0.029 | 0.877 ± 0.038 | 0.836 ± 0.097 | 0.451 ± 0.017 | 0.569 ± 0.071 | 0.954 ± 0.12 | 0.915 ± 0.021 | 0.775 ± 0.071 | 0.688 ± 0.074 | 0.438 ± 0.025 | 0.35 ± 0.031 | 0.238 ± 0.04 | 0.232 ± 0.038
MDAMB231 BREAST |  | 0.939 ± 0.017 | 0.957 ± 0.022 | 0.939 ± 0.025 | 0.955 ± 0.013 | 0.8698 ± 0.0057 | 0.437 ± 0.014 | 0.303 ± 0.012 | 0.803 ± 0.011 | 0.794 ± 0.033 | 0.653 ± 0.022 | 0.571 ± 0.02 | 0.25 ± 0.0064 | 0.171 ± 0.0089 | 0.1411 ± 0.0013 | 0.153 ± 0.0031
MDAMB361 BREAST | 0.779 ± 0.017 | 0.768 ± 0.029 | 0.807 ± 0.043 |  |  | 0.858 ± 0.026 | 1.04 ± 0.053 | 1.02 ± 0.047 | 0.678 ± 0.12 | 0.733 ± 0.081 | 0.668 ± 0.087 | 0.711 ± 0.16 | 0.799 ± 0.058 | 0.781 ± 0.039 | 0.75 ± 0.077 | 0.821 ± 0.13
MDAMB436 BREAST | 0.833 ± 0.046 | 0.828 ± 0.06 | 0.844 ± 0.057 | 0.822 ± 0.046 | 0.996 ± 0.014 | 0.962 ± 0.067 | 0.872 ± 0.036 | 0.736 ± 0.027 | 0.793 ± 0.052 | 0.861 ± 0.061 | 0.811 ± 0.091 | 0.826 ± 0.094 | 0.824 ± 0.082 | 0.775 ± 0.057 | 0.783 ± 0.061 | 0.757 ± 0.034
MDAMB453 BREAST | 0.994 ± 0.054 |  | 1.02 ± 0.074 | 1.03 ± 0.026 | 1.06 ± 0.014 | 1.06 ± 0.05 | 0.771 ± 0.029 | 0.637 ± 0.013 | 1.03 ± 0.046 | 0.995 ± 0.047 | 1.06 ± 0.018 | 1 ± 0.047 | 1.03 ± 0.025 | 1.02 ± 0.052 | 1 ± 0.036 | 1.02 ± 0.091
MDAMB468 BREAST | 0.845 ± 0.076 |  |  | 0.9157 ± 0.004 | 0.972 ± 0.066 | 1.05 ± 0.041 | 0.551 ± 0.081 | 0.234 ± 0.019 | 0.872 ± 0.069 | 0.881 ± 0.038 | 0.909 ± 0.028 | 0.836 ± 0.11 | 0.858 ± 0.099 | 0.718 ± 0.065 | 0.488 ± 0.055 | 0.481 ± 0.055
